Legend:
[1] = stability test: storage in a vacuum bag at 25° C. in the dark, HPLC analysis; assay type: physicochemical
Procedure: The crystal of reduced coenzyme Q10 obtained in Example 1 and the crystal obtained in Comparative Example 1 were each placed in a vacuum bag, and stored at 25° C. in the dark. The weight ratio of reduced coenzyme Q10 to oxidized coenzyme Q10 was calculated by the HPLC analysis, and the results are shown in Table 1.
Conditions for HPLC Analysis:
• Chromatographic column: (Agilent) ZORBAX Extend C18 4.6×150 mm, 5 um • Mobile phase: mobile phase A: acetonitrile, mobile phase B: isopropanol, mobile phase C: methanol • Detection wavelength: 290 nm • Flow rate: 1.5 mL/min • Column temperature: 35° C. • Injection concentration: 1 mg/mL • Injection volume: 20 μL

[2] = solubility in purified water; assay type: physicochemical; conditions: 25° C.

Row | Structure (SMILES) | weight ratio of reduced coenzyme Q10 to oxidized coenzyme Q10: oxidized coenzyme Q10 part ([1]; day 0, vacuum bag) | weight ratio of reduced coenzyme Q10 to oxidized coenzyme Q10: reduced coenzyme Q10 part ([1]; day 0, vacuum bag) | weight ratio of reduced coenzyme Q10 to oxidized coenzyme Q10: oxidized coenzyme Q10 part ([1]; day 15, vacuum bag) | weight ratio of reduced coenzyme Q10 to oxidized coenzyme Q10: reduced coenzyme Q10 part ([1]; day 15, vacuum bag) | weight ratio of reduced coenzyme Q10 to oxidized coenzyme Q10: oxidized coenzyme Q10 part ([1]; day 30, vacuum bag) | weight ratio of reduced coenzyme Q10 to oxidized coenzyme Q10: reduced coenzyme Q10 part ([1]; day 30, vacuum bag) | weight ratio of reduced coenzyme Q10 to oxidized coenzyme Q10: oxidized coenzyme Q10 part ([1]; day 180, vacuum bag) | weight ratio of reduced coenzyme Q10 to oxidized coenzyme Q10: reduced coenzyme Q10 part ([1]; day 180, vacuum bag) | weight ratio of reduced coenzyme Q10 to oxidized coenzyme Q10: oxidized coenzyme Q10 part ([1]; day 360, vacuum bag) | weight ratio of reduced coenzyme Q10 to oxidized coenzyme Q10: reduced coenzyme Q10 part ([1]; day 360, vacuum bag) | solubility in purified water [2] [% by weight]
1 | COc1c(O)c(C)c(C/C=C(\C)CC/C=C(\C)CC/C=C(\C)CC/C=C(\C)CC/C=C(\C)CC/C=C(\C)CC/C=C(\C)CC/C=C(\C)CC/C=C(\C)CCC=C(C)C)c(O)c1OC [Comparative Example 1, reduced coenzyme Q10] | 0.65 | 98.20 | 1.63 | 97.10 | 5.47 | 93.40 | 8.8 | 89.60 | 17.0 | 82.0 | 
2 | COc1c(O)c(C)c(C/C=C(\C)CC/C=C(\C)CC/C=C(\C)CC/C=C(\C)CC/C=C(\C)CC/C=C(\C)CC/C=C(\C)CC/C=C(\C)CC/C=C(\C)CCC=C(C)C)c(O)c1OC [Example 1, reduced coenzyme Q10] | 0.40 | 99.18 | 0.50 | 99.00 | 0.80 | 98.01 | 1.10 | 97.90 | 1.94 | 97.33 | 0.5
3 | COc1c(O)c(C)c(C/C=C(\C)CC/C=C(\C)CC/C=C(\C)CC/C=C(\C)CC/C=C(\C)CC/C=C(\C)CC/C=C(\C)CC/C=C(\C)CC/C=C(\C)CCC=C(C)C)c(O)c1OC [Example 2, reduced coenzyme Q10] |  |  |  |  |  |  |  |  |  |  | 0.5

From patent US12516010B2, “Crystal form of reduced coenzyme Q10 and preparation method therefor” ([…] BIOTECHNOLOGY (HAINAN) CO., LTD, priority 2023, dated 2026)
